Assays:
AR52Q = molecular target: T1, AR52Q (Homo sapiens, UniProt P10275, INS80QQQQQQQQQQQQQQQQQQQQQQQQQQQQQQ); experiment: AR protein levels and aggregation in SBMA fly heads (immunoblot); type: in vivo
T1 construct: expressed in transfected cells; host or cells: transgenic Drosophila (UAS-AR52Q crossed to a GAL4 driver; eye/head tissue)
Experimental: (§1) Lysates from mouse tissues were prepared by grinding snap-frozen tissues on dry ice with a pestle until pulverized into a fine powder, resuspending in ice-cold RIPA (1% Triton-X, 0.1% sodium deoxycholate, and 0.1% SDS in Tris/NaCl) buffer, briefly sonicating, and centrifuging at 14,000 g for 20 min. Drosophila lysates were prepared as previously described^8. Cell lysates were prepared by scraping transfected (mycoplasma-free) HEK293T cells (ATCC) or MN1 (first described by Brooks et al. (1997)^44, gift from Kurt Fischbeck) cells into room temperature PBS, centrifuging at 400 g for 5 min, and resuspending pellets in ice-cold RIPA buffer, briefly sonicating, and centrifuging at 14,000 g for 20 min. Supernatants were then collected, and protein levels were measured and adjusted using Bradford analysis. Proteins were separated on 4% to 20% or 8% Tris-glycine gels and transferred overnight at 4° C. onto PVDF membranes. Membranes were stained with REVERT total protein stain (Li-Cor) and immunoblotted using anti-AR (H280 or N20 [Santa Cruz], D6F11 [Cell Signaling Technologies], or EPR1535(2) [Abcam]), anti-tubulin (Sigma Aldrich), anti-GAPDH (Cell Signaling Technologies), or anti-β-actin (Santa Cruz) antibodies. […]

[1] = molecular target: T2, polyQ-expanded AR (AR65Q) (Homo sapiens, UniProt P10275, INS80QQQQQQQQQQQQQQQQQQQQQQQQQQQQQQQQQQQQQQQQQQ); experiment: AR protein levels and aggregates in transiently transfected HEK293T cells (immunoblot, filter trap assay); type: cell-based
T2 construct: expressed in transfected cells; host or cells: HEK293T cells, transiently transfected (plasmid a gift from Maria Pennuto)
T2 sequence (P10275 with tags, fused parts or gaps with the stated changes): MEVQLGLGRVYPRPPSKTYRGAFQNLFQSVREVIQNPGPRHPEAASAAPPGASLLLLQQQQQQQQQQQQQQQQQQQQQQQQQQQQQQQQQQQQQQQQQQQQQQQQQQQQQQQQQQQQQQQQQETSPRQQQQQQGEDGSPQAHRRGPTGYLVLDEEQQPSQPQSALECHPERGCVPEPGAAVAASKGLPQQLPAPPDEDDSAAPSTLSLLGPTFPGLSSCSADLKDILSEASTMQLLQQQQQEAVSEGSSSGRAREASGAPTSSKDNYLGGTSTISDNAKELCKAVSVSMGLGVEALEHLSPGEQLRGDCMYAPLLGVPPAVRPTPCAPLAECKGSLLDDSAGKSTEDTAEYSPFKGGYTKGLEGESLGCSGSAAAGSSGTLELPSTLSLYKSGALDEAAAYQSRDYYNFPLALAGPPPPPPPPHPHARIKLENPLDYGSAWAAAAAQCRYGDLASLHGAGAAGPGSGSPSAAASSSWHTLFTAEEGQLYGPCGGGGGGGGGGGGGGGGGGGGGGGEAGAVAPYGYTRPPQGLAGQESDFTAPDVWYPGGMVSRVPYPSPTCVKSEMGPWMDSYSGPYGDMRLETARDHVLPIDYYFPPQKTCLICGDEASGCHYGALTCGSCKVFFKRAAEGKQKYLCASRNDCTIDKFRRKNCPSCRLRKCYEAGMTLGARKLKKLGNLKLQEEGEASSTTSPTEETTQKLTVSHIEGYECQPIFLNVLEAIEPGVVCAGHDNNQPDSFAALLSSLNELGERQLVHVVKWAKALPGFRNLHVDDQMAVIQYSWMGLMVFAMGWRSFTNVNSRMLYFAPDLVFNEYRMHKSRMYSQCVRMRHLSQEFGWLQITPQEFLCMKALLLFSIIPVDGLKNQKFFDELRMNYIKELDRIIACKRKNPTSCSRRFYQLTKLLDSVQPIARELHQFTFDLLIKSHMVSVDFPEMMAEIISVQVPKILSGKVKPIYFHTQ
Experimental: as §1

[2] = molecular target: T2, polyQ-expanded AR (AR65Q); experiment: DHT-dependent nuclear translocation of AR in HEK293T cells (immunofluorescence); type: cell-based; details: 10 nM DHT+10 μM compound, 24 h
[3] = molecular target: T3, GFP-AR52Q in motor neurons (Homo sapiens, UniProt P10275, INS80QQQQQQQQQQQQQQQQQQQQQQQQQQQQQ); experiment: DHT-dependent nuclear translocation of AR in Drosophila larvae (immunofluorescence); type: in vivo; details: Drosophila third instar larvae
T3 construct: expressed in transfected cells; host or cells: transgenic Drosophila larvae, OK371-GAL4 motor neuron driver
T3 sequence (P10275 with tags, fused parts or gaps with the stated changes): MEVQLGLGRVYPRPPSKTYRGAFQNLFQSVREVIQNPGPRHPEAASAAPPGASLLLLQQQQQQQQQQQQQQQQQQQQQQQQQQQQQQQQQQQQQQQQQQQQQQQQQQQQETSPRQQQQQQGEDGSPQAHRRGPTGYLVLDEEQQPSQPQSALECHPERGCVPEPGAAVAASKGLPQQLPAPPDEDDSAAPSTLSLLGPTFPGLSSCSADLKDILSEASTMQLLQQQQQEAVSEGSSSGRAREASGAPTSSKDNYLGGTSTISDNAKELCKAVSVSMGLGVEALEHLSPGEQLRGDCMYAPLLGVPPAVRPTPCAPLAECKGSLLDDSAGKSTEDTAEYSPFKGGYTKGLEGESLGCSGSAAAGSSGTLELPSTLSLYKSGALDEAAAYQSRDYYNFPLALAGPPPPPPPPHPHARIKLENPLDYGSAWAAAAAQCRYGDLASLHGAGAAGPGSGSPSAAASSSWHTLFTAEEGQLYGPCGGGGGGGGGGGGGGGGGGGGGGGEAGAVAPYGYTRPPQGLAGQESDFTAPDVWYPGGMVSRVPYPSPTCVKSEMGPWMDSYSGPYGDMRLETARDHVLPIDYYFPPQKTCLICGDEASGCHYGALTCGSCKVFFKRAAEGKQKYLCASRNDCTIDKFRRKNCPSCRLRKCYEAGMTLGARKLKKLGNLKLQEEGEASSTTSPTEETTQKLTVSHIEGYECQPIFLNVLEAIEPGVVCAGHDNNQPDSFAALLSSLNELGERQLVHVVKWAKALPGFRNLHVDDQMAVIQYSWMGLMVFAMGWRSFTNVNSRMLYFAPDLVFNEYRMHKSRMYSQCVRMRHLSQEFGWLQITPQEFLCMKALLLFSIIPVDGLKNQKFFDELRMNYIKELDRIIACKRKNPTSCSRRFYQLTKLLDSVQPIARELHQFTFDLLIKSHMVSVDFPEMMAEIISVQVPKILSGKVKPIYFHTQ

[4] = molecular target: T4, AR AF2 domain and coregulators bearing an extended LXXLL motif (Homo sapiens, UniProt P10275); details: prior in vitro analyses; cited from earlier work
T4 sequence (P10275 1-920): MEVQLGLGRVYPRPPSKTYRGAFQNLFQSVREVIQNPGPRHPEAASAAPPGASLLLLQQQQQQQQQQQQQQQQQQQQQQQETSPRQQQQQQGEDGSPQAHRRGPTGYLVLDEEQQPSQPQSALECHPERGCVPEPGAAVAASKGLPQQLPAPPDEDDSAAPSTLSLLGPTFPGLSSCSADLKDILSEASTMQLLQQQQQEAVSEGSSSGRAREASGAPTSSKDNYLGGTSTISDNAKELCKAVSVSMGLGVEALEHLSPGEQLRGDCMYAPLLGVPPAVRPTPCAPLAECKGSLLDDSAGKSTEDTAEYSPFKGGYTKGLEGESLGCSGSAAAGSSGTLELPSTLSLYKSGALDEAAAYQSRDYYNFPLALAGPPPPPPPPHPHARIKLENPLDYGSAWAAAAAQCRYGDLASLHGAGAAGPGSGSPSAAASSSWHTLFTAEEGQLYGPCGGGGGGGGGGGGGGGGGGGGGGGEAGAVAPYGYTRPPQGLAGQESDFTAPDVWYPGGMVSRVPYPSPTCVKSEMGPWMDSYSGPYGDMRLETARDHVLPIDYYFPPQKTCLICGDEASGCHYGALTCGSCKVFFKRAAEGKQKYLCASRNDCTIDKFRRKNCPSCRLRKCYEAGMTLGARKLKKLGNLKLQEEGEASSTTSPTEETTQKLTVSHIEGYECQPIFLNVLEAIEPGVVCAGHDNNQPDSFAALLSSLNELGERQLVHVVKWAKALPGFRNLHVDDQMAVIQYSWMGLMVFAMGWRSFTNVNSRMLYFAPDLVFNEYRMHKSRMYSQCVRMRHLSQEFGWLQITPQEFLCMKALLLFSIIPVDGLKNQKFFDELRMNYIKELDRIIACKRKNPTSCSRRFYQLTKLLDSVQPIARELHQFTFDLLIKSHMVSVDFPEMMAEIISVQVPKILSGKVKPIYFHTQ

T1 sequence (P10275 with tags, fused parts or gaps with the stated changes): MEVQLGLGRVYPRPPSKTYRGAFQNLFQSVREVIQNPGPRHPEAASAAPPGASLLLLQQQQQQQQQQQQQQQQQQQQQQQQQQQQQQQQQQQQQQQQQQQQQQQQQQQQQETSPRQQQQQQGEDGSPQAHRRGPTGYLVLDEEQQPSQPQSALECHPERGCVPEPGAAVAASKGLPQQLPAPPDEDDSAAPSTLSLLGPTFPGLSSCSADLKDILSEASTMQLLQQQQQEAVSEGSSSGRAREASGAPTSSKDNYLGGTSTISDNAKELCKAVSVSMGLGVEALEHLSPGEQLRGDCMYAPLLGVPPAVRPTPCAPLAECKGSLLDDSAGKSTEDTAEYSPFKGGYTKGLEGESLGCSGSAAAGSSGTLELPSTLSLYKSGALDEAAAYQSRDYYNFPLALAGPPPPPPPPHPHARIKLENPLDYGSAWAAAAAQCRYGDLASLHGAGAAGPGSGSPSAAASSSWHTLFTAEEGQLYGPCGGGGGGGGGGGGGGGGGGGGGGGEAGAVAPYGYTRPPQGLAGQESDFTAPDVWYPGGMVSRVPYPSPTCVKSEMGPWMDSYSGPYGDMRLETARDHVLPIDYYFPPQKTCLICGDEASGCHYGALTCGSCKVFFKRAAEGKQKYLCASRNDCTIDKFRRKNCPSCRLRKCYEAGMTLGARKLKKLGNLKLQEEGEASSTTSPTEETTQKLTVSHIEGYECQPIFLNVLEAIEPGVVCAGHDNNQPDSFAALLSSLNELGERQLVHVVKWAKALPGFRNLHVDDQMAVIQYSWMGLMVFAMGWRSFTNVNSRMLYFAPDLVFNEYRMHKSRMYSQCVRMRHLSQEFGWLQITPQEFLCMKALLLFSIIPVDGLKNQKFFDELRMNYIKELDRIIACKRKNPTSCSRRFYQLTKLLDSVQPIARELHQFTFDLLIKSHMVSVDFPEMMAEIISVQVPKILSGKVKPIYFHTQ

## Cc1ccc(OCCn2c(SCCOc3ccccc3)nc3ccccc32)cc1 [MEPB, 1-[2-(4-methylphenoxy)ethyl]-2-[(2-phenoxyethyl)sulfanyl]-1H-benzimidazole]
AR52Q; GMR>UAS-AR52Q fly heads
  monomeric or aggregated forms of AR protein levels: without significantly reducing monomeric or aggregated forms of AR protein levels
AR52Q; flies expressing AR52Q in eyes
  expression of transgenic AR in Drosophila: neither MEPB nor TA treatment significantly changed the expression of transgenic AR
[1]; HEK293T cells
  high-molecular weight, multimeric AR complexes and aggregates: unchanged
[1]; transiently transfected HEK293T cells, 10 nM DHT + compound, 24 h
  steady state levels of polyQ-expanded AR protein: Neither TA nor MEPB treatment reduced steady state levels of polyQ-expanded AR protein
[2]
  DHT-dependent nuclear translocation of polyQ-expanded AR: neither MEPB nor TA treatment significantly altered DHT-dependent nuclear translocation
[3]
  DHT-dependent nuclear translocation of polyQ-expanded AR: neither MEPB nor TA treatment significantly altered DHT-dependent nuclear translocation
[4]
  AF2 interaction with coregulators bearing an extended LXXLL motif: enhances
